Data: patent US5061794A, “Cephalosporin derivatives, and antibacterial agents” (priority 1986, dated 1991)
Like-named read-outs stand apart in the source and are kept apart here.

What was measured:
[1] = system: K. oxytoca GN10650; assay: in vitro antibacterial activity, agar plate dilution method (MIC); format: cell-based; conditions: Klebsiella oxytoca, GN10650, 16 h, read-out: Minimum Inhibitory Concentration (MIC), *K. oxytoca GN10650, lactamase-producing strain; 10^6 CFU/ml
Outline: (§1)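 Each organism, pre-grown overnight in Mueller Hinton broth, is inoculated at 10^6 CFU/ml onto Mueller Hinton agar series with increasing compound concentration; growth inhibition is scored after 16 h, 37° C., giving MIC (μg/ml).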

[2] = system: S. aureus 209P NIHJ-JC1; assay: as above; format: cell-based; conditions: Staphylococcus aureus, 16 h
Outline: as §1

[3] = system: P. vulgaris No. 33; assay: as above; format: cell-based; conditions: Proteus vulgaris, NO.33, 16 h, read-out: Minimum Inhibitory Concentration (MIC), *P. vulgaris No. 33, lactamase-producing strain; 10^6 CFU/ml
Outline: as §1

[4] = system: E. coli NIHJ JC2; assay: as above; format: cell-based; conditions: Escherichia coli, NIHJJC2, 16 h, read-out: Minimum Inhibitory Concentration (MIC), E. coli NIHJ JC2, 10^6 CFU/ml, 37° C.
Outline: as §1

[5] = system: E. coli GN5482; assay: as above; format: cell-based; conditions: Escherichia coli, GN5482, 16 h
Outline: as §1

[6] = system: P. vulgaris HX-19; assay: as above; format: cell-based; conditions: Proteus vulgaris, HX19, 16 h, P. vulgaris HX-19; 10^6 CFU/ml; read-out: Minimum Inhibitory Concentration (MIC)
Outline: as §1

[7] = system: K. pneumoniae No. 42; assay: as above; format: cell-based; conditions: Klebsiella pneumoniae, NO.42, 16 h, read-out: Minimum Inhibitory Concentration (MIC), *K. pneumoniae No. 42, lactamase-producing strain; 10^6 CFU/ml
Outline: as §1

[8] = system: K. pneumoniae PCI-602; assay: as above; format: cell-based; conditions: Klebsiella pneumoniae, PCI602, 16 h, read-out: Minimum Inhibitory Concentration (MIC), K. pneumoniae PCI-602; 10^6 CFU/ml
Outline: as §1

[9] = system: E. cloacae 963; assay: as above; format: cell-based; conditions: 10^6 CFU/ml
Outline: as §1

[10] = system: M. morganii GN5407; assay: as above; format: cell-based; conditions: Morganella morganii, GN5407, 16 h, read-out: Minimum Inhibitory Concentration (MIC), *M. morganii GN5407, lactamase-producing strain; 10^6 CFU/ml
Outline: as §1

[11] = system: S. marcescens No. 16-2; assay: as above; format: cell-based; conditions: Serratia marcescens, NO.162, 16 h
Outline: as §1

[12] = system: S. marcescens IAM 1184; assay: as above; format: cell-based; conditions: Serratia marcescens, IAM1184, 16 h, S. marcescens IAM 1184; 10^6 CFU/ml; read-out: Minimum Inhibitory Concentration (MIC)
Outline: as §1

[13] = system: E. cloacae Nek 39; assay: as above; format: cell-based; conditions: Enterobacter cloacae, NEK39, 16 h, read-out: Minimum Inhibitory Concentration (MIC), *E. cloacae Nek 39, lactamase-producing strain; 10^6 CFU/ml
Outline: as §1

[14] = system: E. coli CSH2 (RK1); assay: microbe, parasite or virus in culture; format: cell-based; conditions: Escherichia coli, 16 h, read-out: Minimum Inhibitory Concentration (MIC), *E. coli CSH2 (RK1), lactamase-producing strain; 10^6 CFU/ml
Outline: as §1

[15] = system: E. coli CSH(RE45); assay: microbe, parasite or virus in culture; format: cell-based; conditions: Escherichia coli, 16 h, read-out: Minimum Inhibitory Concentration (MIC), *E. coli CSH(RE45), lactamase-producing strain; 10^6 CFU/ml
Outline: as §1

[16] = system: A. calcoaceticus No. 4; assay: in vitro antibacterial activity, agar plate dilution method (MIC); format: cell-based, Acinetobacter calcoaceticus; conditions: Acinetobacter calcoaceticus, NO.4, 16 h, 10^6 CFU/ml
Outline: as §1

[17] = system: Ps. cepacia 23; assay: as above; format: cell-based, Pseudomonas cepacia; conditions: Burkholderia cepacia, 16 h; Ps. cepacia 23; 10^6 CFU/ml; read-out: Minimum Inhibitory Concentration (MIC)
Outline: as §1

[18] = system: Ps. aeruginosa AKR17; assay: as above; format: cell-based, Pseudomonas aeruginosa; conditions: Pseudomonas aeruginosa, 10^6 CFU/ml
Outline: as §1

[19] = system: Ps. aeruginosa IF03445; assay: as above; format: cell-based, Pseudomonas aeruginosa; conditions: Pseudomonas aeruginosa, IF03445, 16 h, read-out: Minimum Inhibitory Concentration (MIC), Ps. aeruginosa IF03445; 10^6 CFU/ml
Outline: as §1

[20] = system: Ps. aeruginosa AK 109; assay: as above; format: cell-based, Pseudomonas aeruginosa; conditions: Pseudomonas aeruginosa, AK109, 16 h
Outline: as §1

[21] = read-out: Minimum Inhibitory Concentration (MIC)
[22] = Enterobacter cloacae, 963, 16 h, read-out: Minimum Inhibitory Concentration (MIC), E. cloacae 963
[23] = read-out: Minimum Inhibitory Concentration (MIC), S. aureus 209P NIHJ-JC1, 10^6 CFU/ml, 37° C., 16 hours
[24] = read-out: Minimum Inhibitory Concentration (MIC), *E. coli GN5482, lactamase-producing strain, 10^6 CFU/ml
[25] = read-out: Minimum Inhibitory Concentration (MIC), *S. marcescens No. 16-2, lactamase-producing strain, 10^6 CFU/ml
[26] = read-out: Minimum Inhibitory Concentration (MIC), A. calcoaceticus No. 4
[27] = 16 h, Ps. aeruginosa AKR17, read-out: Minimum Inhibitory Concentration (MIC)

`Nc1nc(/C(=N/OC2(C(=O)O)CC2)C(=O)N[C@@H]2C(=O)N3C(C(=O)O)=C(CSc4nnc(-c5ccc(O)c(O)c5)s4)CS[C@H]23)cs1` [Ex. 35, disodium 7β-[2-(2-aminothiazol-4-yl)-2-(1-carboxylate-1-cyclooropoxyimino)acetamido]-3-[5-(3,4-dihydroxyphenyl)-1,3,4-thiadiazol-2-yl]thiomethyl-3-cephem-4-carboxylate] gave an MIC [1] of 0.025 µg/mL, an MIC [2, 21] of 12.5 µg/mL and an MIC [3] of 0.0125 µg/mL. For the same molecule, the MIC [4] was 0.2 µg/mL, the MIC [5, 21] was 0.39 µg/mL and the MIC [6] was < 0.006 µg/mL. The MIC [7] was 0.0125 µg/mL, the MIC [8] was < 0.006 µg/mL and the MIC [9, 22] was 0.05 µg/mL. It also gave an MIC [10] of 0.05 µg/mL, an MIC [11, 21] of 0.39 µg/mL and an MIC [12] of 0.025 µg/mL. For the same molecule, the MIC [13] was 0.05 µg/mL, the MIC [14] was < 0.006 µg/mL and the MIC [15] was < 0.006 µg/mL. For the same molecule, the MIC ([16]; A. calcoaceticus No. 4, read-out: Minimum Inhibitory Concentration (MIC)) was 0.05 µg/mL, the MIC [17] was < 0.006 µg/mL and the MIC ([18]; AKR17, 16 h, read-out: Minimum Inhibitory Concentration (MIC), Ps. aeruginosa AKR17) was 1.56 µg/mL. For the same molecule, the MIC [19] was 0.39 µg/mL and the MIC ([20]; Ps. aeruginosa AK 109, 10^6 CFU/ml, read-out: Minimum Inhibitory Concentration (MIC)) was 0.2 µg/mL.

With `CC(C)ON=C(C(=O)NC1C(=O)N2C(C(=O)O)=C(CSc3nc(-c4ccc(O)c(O)c4)cs3)CSC12)c1csc(N)n1` (stereo not drawn) [Ex. 41, sodium 7β-[2-(2-aminothiazol-4-yl)-2-isooropoxyiminoacetamido]-3-[4-(3,4-dihydroxyphenyl)-thiazol-2-yl]thiomethyl-3-cechem-4-carboxylate] the MIC [1] was 0.39 µg/mL, the MIC [2, 23] was 1.56 µg/mL and the MIC [3] was 0.05 µg/mL. The MIC [4] was 0.2 µg/mL, the MIC [5, 24] was 0.78 µg/mL and the MIC [6] was 0.025 µg/mL. The MIC [7] was 0.1 µg/mL, the MIC [8] was < 0.006 µg/mL and the MIC ([9]; Enterobacter cloacae, 16 h, E. cloacae 963, read-out: Minimum Inhibitory Concentration (MIC)) was 0.1 µg/mL. The MIC [10] was 0.05 µg/mL, the MIC [11, 25] was 6.25 µg/mL and the MIC [12] was 0.05 µg/mL. For the same molecule, the MIC [13] was 0.2 µg/mL, the MIC [14] was 0.0125 µg/mL and the MIC [15] was < 0.006 µg/mL. The MIC [16, 26] was 0.39 µg/mL, the MIC [17] was 0.05 µg/mL and the MIC [18, 27] was 50 µg/mL. The MIC [19] was 0.78 µg/mL and the MIC [20, 21] was 0.39 µg/mL.

Molecule `C=CCON=C(C(=O)NC1C(=O)N2C(C(=O)O)=C(CSc3nc(-c4ccc(O)c(O)c4)cs3)CSC12)c1csc(N)n1` (stereo not drawn) [Ex. 42, sodium 78-[2-allyloxyimino-2-(2-aminothiazol-4-yl)acetamido]-3-[4-(3,4-dihydroxyphenyl)-thiazol-2-yl]thiomethyl-3-cephem-4-carboxylate] has an MIC [1] of 3.12 µg/mL, an MIC [2, 23] of 0.78 µg/mL and an MIC [3] of 0.05 µg/mL. It also gave an MIC [4] of 0.2 µg/mL, an MIC [5, 24] of 0.78 µg/mL and an MIC [6] of 0.0125 µg/mL. The MIC [7] was 0.2 µg/mL, the MIC [8] was < 0.006 µg/mL and the MIC [9, 22] was 0.05 µg/mL. The MIC [10] was 0.05 µg/mL, the MIC [11, 25] was 6.25 µg/mL and the MIC [12] was 0.05 µg/mL. It also gave an MIC [13] of 0.39 µg/mL, an MIC [14] of 0.025 µg/mL and an MIC [15] of 0.025 µg/mL. For the same molecule, the MIC [16, 26] was 0.39 µg/mL, the MIC [17] was 0.1 µg/mL and the MIC [18, 27] was 100 µg/mL. The MIC [19] was 0.78 µg/mL and the MIC ([20]; read-out: Minimum Inhibitory Concentration (MIC), Ps. aeruginosa AK 109, 10^6 CFU/ml) was 0.78 µg/mL.
